{"source": "patent US11147818B2", "about": "“Combination therapies” (Infinity Pharmaceuticals, Inc., priority 2016, dated 2021)", "test_in_all_cases": "Combination study of Compound 1 with selinexor, ATPLite cell growth/viability, 9x9 dose matrix", "format_in_all_cases": "cell-based", "details_in_all_cases": "Compound 1 in combination with Selinexor, 72 hours", "key": {"H9 cell line": {"tested_on": "H9 cell line", "description": "(§1) The synergistic effects of compounds provided herein and another therapeutic agent were carried out. The method is described as follows. Cells were thawed from a liquid nitrogen preserved state. Once cells were expanded and divided at their expected doubling times, screening began. Cells were seeded in growth media in either black 1536-well or 384-well tissue culture treated plates. Cells were then equilibrated in assay plates via centrifugation and placed in incubators attached to the Dosing Modules at 37° C. for 24 hours before treatment. […] These Tzero (To) plates were read using ultra-sensitive luminescence on Envision plate readers (Perkin Elmer). Treated assay plates were incubated with compound for 72 hours. After 72 hours, plates were developed for endpoint analysis using ATPLite. All data points were collected via automated processes, quality controlled and analyzed using Zalicus software. Assay plates were accepted if they passed the following quality control standards: relative luciferase values were consistent throughout the entire experiment, Z-factor scores were greater than 0.6, untreated/vehicle controls behaved consistently on the plate.\nInhibition (I) is defined as I=(1−T/V)*100% where T is treated cell count and V is untreated (vehicle) cell count (at 72 hours). I ranges from 0% (when T=V) to 100% (when T=0). The IC50 value is defined as the drug concentration needed to inhibit 50% of the cell growth compared to growth of the vehicle treated cells (the drug concentration which gives I=50%). The measure of effect in the experiment can be the inhibition of cellular response relative to the untreated level (vehicle alone). For untreated vehicle and treated levels V and T, a fractional inhibition I=1-T/V is calculated. […] When activity ratios (e.g., fold increase over stimulated control) are being used, the effect can be measured using an induction I=ln(T/V). […]\nGrowth Inhibition (GI) is used as a measure of cell viability. The cell viability of vehicle is measured at the time of dosing (TO) and after 72 hours (T72). A GI reading of 0% represents no growth inhibition—T72 compound-treated and T72 vehicle signals are matched. A GI reading of 100% represents complete growth inhibition—T72 compound-treated and TO vehicle signals are matched. […] A GI reading of 200% represents complete death of all cells in the culture well. […] GI is calculated by applying the following test and equation: […]\nCombination analysis data were collected in a 9×9 dose matrix. Synergy was calculated by comparing a combination's response to those of its single compound, against the drug-with-itself dose-additive reference model. Deviations from dose additivity may be assessed visually on an isobologram or numerically with a Combination Index (CI). […]"}, "HH cell line": {"tested_on": "HH cell line", "description": "as §1\n(§2) Inhibition (I) is defined as I=(1−T/V)*100% where T is treated cell count and V is untreated (vehicle) cell count (at 72 hours). I ranges from 0% (when T=V) to 100% (when T=0). The IC50 value is defined as the drug concentration needed to inhibit 50% of the cell growth compared to growth of the vehicle treated cells (the drug concentration which gives I=50%). The measure of effect in the experiment can be the inhibition of cellular response relative to the untreated level (vehicle alone). For untreated vehicle and treated levels V and T, a fractional inhibition I=1-T/V is calculated. The inhibition ranges from 0% at the untreated level to 100% when T=0. Inhibition levels are negative for agents that actually increase levels. Other effect measures, such as an activity ratio r=T/V may be more appropriate for some assays. When activity ratios (e.g., fold increase over stimulated control) are being used, the effect can be measured using an induction I=ln(T/V). With this definition, all effect expressions are the same as for inhibition.\n(§3) Growth Inhibition (GI) is used as a measure of cell viability. The cell viability of vehicle is measured at the time of dosing (TO) and after 72 hours (T72). A GI reading of 0% represents no growth inhibition—T72 compound-treated and T72 vehicle signals are matched. A GI reading of 100% represents complete growth inhibition—T72 compound-treated and TO vehicle signals are matched. […] A GI reading of 200% represents complete death of all cells in the culture well. Compounds reaching an activity plateau of GI 200% are considered cytotoxic. GI is calculated by applying the following test and equation:\n(§4) [formula] [formula] where T is the signal measure for a test article, V is the vehicle-treated control measure, and Vo is the vehicle control measure at time zero. This formula is derived from the Growth Inhibition calculation used in the National Cancer Institute's NCI-60 high-throughput screen.\n(§5) Combination analysis data were collected in a 9×9 dose matrix. Synergy was calculated by comparing a combination's response to those of its single compound, against the drug-with-itself dose-additive reference model. Deviations from dose additivity may be assessed visually on an isobologram or numerically with a Combination Index (CI). See the tables below for CI at 50% inhibition and CI at 50% growth inhibition. Additive effect is CI=1.0. Synergistic effect is CI<1. Antagonistic effect is CI>1.0.\n(§6) To measure combination effects in excess of Loewe additivity, a scalar measure to characterize the strength of synergistic interaction termed the Synergy Score was devised. […]"}, "MJ (G11) cell line": {"tested_on": "MJ (G11) cell line", "description": "as §1, §2, §3, §4, §5, §6"}, "HuT 102 cell line": {"tested_on": "HuT 102 cell line", "description": "as §1, §2, §3, §4, §5, §6"}, "HuT 78 cell line": {"tested_on": "HuT 78 cell line", "description": "as §1, §2, §3, §4, §5, §6"}}}
{"smiles": "O=C(/C=C\\n1cnc(-c2cc(C(F)(F)F)cc(C(F)(F)F)c2)n1)NNc1cnccn1", "note": "[Selinexor, (Z)-3-(3-(3,5-bis(trifluoromethyl)phenyl)-1H-1,2,4-triazol-1-yl)—N′-(pyrazin-2-yl)acrylohydrazide]", "values": [{"measurement": "CI50 growth inhibition", "setting": "H9 cell line", "value": "A3 (A3=>3)"}, {"measurement": "CI50 inhibition", "setting": "H9 cell line", "value": "A3 (A3=>3)"}, {"measurement": "Synergy Score growth inhibition", "setting": "H9 cell line", "value": 10.4}, {"measurement": "Synergy Score inhibition", "setting": "H9 cell line", "value": 3.23}, {"measurement": "CI50 growth inhibition", "setting": "HH cell line", "value": "A2 (A2=1 to <3)"}, {"measurement": "CI50 inhibition", "setting": "HH cell line", "value": "A2 (A2=1 to <3)"}, {"measurement": "Synergy Score growth inhibition", "setting": "HH cell line", "value": 1.53}, {"measurement": "Synergy Score inhibition", "setting": "HH cell line", "value": 1.25}, {"measurement": "CI50 growth inhibition", "setting": "MJ (G11) cell line", "value": "A3 (A3=>3)"}, {"measurement": "CI50 inhibition", "setting": "MJ (G11) cell line", "value": "A2 (A2=1 to <3)"}, {"measurement": "Synergy Score growth inhibition", "setting": "MJ (G11) cell line", "value": 4.50}, {"measurement": "Synergy Score inhibition", "setting": "MJ (G11) cell line", "value": 1.50}, {"measurement": "CI50 inhibition", "setting": "HuT 102 cell line", "value": "A1 (A1=0.0001 to <1)"}, {"measurement": "Synergy Score inhibition", "setting": "HuT 102 cell line", "value": 0.82}, {"measurement": "CI50 growth inhibition", "setting": "HuT 78 cell line", "value": "A3 (A3=>3)"}, {"measurement": "CI50 inhibition", "setting": "HuT 78 cell line", "value": "A2 (A2=1 to <3)"}, {"measurement": "Synergy Score growth inhibition", "setting": "HuT 78 cell line", "value": 5.85}, {"measurement": "Synergy Score inhibition", "setting": "HuT 78 cell line", "value": 1.94}]}
